Series [1] has as its target Sigma non-opioid intracellular receptor 1 (Homo sapiens, UniProt Q99720). Nature of the series: DRUGMATRIX: Sigma1 radioligand binding (ligand: [3H] Haloperidol). It counts as cell membranes, Jurkat, Membrane. The note with it: Not Active = under 50% inhibition at 10 µM.
The nature of series [2]: DRUGMATRIX: Glutamate, NMDA, Phencyclidine radioligand binding (ligand: [3H] TCP). It counts as cell membranes, Rattus norvegicus, Wistar, Cerebral cortex, Membrane. The note with it: Not Active = under 50% inhibition at 10 µM.
A further series deals with Cytochrome P450 2E1 (Homo sapiens, UniProt P05181). The note with it: bti-tn-5b1-4.
The next series addresses Adenosine receptor A2a (Homo sapiens, UniProt P29274). Nature of the series: DRUGMATRIX: Adenosine A2A radioligand binding (ligand: […]). It counts as cell membranes, HEK293, Membrane. Particulars: hek293; Not Active = under 50% inhibition at 10 µM.
Series [3] is described as follows: DRUGMATRIX: Calcium Channel Type L, Benzothiazepine radioligand binding (ligand: [3H] Diltiazem). Particulars: Not Active = under 50% inhibition at 10 µM. It counts as cell membranes, Rattus norvegicus, Wistar, Brain, Membrane.
Series [4] is described as follows: DRUGMATRIX: Glutamate, NMDA, Agonism radioligand binding (ligand: [3H] CGP-39653). It counts as cell membranes, Rattus norvegicus, Wistar, Cerebral cortex, Membrane. The note with it: Not Active = under 50% inhibition at 10 µM.
The target in series [5] is Platelet-activating factor receptor (Homo sapiens, UniProt P25105). It counts as tissue-based. Also: in other assays of this panel Not Active means under 50% inhibition at 10 µM.
Series [6] is described as follows: DRUGMATRIX: beta-Lactamase enzyme inhibition (substrate: Nitrocefin). The note with it: Not Active = under 50% inhibition at 10 µM. The arrangement: species or system Bacillus cereus.

Sequence of Sigma non-opioid intracellular receptor 1 (Q99720 whole entry): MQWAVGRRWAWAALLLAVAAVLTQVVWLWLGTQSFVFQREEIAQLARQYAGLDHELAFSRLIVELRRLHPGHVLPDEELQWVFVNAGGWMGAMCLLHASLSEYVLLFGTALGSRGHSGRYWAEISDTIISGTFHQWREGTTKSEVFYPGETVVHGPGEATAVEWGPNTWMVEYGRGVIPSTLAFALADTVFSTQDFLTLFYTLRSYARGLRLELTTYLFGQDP
Sequence of Adenosine receptor A2a (P29274 whole entry): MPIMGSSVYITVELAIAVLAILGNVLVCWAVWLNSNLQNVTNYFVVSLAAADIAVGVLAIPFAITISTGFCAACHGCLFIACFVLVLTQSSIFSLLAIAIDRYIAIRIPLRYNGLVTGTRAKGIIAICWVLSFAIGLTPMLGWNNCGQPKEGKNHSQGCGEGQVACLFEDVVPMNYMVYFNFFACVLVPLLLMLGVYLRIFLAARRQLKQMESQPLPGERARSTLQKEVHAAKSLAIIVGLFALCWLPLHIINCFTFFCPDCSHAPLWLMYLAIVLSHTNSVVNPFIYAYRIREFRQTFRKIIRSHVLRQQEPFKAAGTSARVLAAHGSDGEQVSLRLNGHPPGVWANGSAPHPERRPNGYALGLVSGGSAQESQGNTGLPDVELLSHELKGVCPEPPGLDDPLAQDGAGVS
Sequence of Cytochrome P450 2E1 (P05181 whole entry): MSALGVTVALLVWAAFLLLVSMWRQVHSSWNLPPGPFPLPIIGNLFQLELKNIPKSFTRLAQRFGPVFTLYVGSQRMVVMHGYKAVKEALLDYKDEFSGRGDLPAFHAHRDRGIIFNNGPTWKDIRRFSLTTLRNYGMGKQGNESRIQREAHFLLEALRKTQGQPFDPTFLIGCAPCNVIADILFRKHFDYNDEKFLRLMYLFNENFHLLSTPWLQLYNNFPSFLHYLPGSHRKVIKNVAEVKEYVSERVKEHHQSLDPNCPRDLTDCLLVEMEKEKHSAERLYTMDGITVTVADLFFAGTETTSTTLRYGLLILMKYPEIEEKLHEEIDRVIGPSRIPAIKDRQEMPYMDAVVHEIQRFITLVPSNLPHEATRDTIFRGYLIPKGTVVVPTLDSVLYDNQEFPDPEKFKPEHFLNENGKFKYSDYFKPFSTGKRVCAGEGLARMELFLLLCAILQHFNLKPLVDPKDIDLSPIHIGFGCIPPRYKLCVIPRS
Sequence of Platelet-activating factor receptor (P25105 whole entry): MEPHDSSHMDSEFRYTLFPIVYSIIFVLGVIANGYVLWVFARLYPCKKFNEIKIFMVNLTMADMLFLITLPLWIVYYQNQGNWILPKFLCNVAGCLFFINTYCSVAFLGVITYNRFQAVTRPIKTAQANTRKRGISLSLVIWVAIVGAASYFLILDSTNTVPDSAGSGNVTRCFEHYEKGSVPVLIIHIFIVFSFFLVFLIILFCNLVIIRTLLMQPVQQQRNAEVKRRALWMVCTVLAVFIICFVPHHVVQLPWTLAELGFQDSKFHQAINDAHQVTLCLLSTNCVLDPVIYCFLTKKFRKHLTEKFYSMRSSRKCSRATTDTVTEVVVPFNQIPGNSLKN

`CS(=O)(=O)c1ccc(C2=C(c3ccccc3)C(=O)OC2)cc1` [ROFECOXIB]: the IC50 entry (in series [1] (jurkat); in series [2]; on Cytochrome P450 2E1; on Adenosine receptor A2a; in series [3]; in series [4]) was “Not Active” each time. The IC50 entry in series [5] and in series [6] was “Not Active” throughout. Moreover, the Ki result (in series [2]; at Cytochrome P450 2E1; in series [3]; in series [4]; in series [6]) was “Not Active” throughout.

With `CCOC(=O)C1=C(C)NC(C)=C(C(=O)OCC)C1c1ccccc1/C=C/C(=O)OC(C)(C)C` [LACIDIPINE], the 50% inhibitory concentration (IC50) entry in series [1] (jurkat) was “Not Active”; in series [2], “Not Active”; at Cytochrome P450 2E1, “Not Active”; on Adenosine receptor A2a, “Not Active”; in series [3] (read-out: IC50), 5.45 nM; in series [4] it was “Not Active”. Further, the 50% inhibitory concentration (IC50) entry in series [5] and in series [6] was “Not Active” in each case. In addition, the inhibitory constant (Ki) entry is “Not Active” in series [2]; “Not Active” on Cytochrome P450 2E1; 4.84 nM in series [3] (read-out: Ki); “Not Active” in series [4]; “Not Active” in series [6].

`CC(N)C12CC3CC(CC(C3)C1)C2` (centres undefined) [RIMANTADINE]: the IC50 entry (in series [1] (jurkat); in series [2]; against Cytochrome P450 2E1; on Adenosine receptor A2a; in series [3]; in series [4]) was “Not Active” in each case. For the same compound, the IC50 result in series [5] and in series [6] was “Not Active” in each case. The Ki result (in series [2]; on Cytochrome P450 2E1; in series [3]; in series [4]; in series [6]) was “Not Active” each time.

`CC(Cl)(Cl)Cl` [TRICHLOROETHANE]: the IC50 entry (in series [1] (jurkat); in series [2]; against Cytochrome P450 2E1; at Adenosine receptor A2a; in series [3]; in series [4]) was “Not Active” throughout. Also, the IC50 result in series [5] and in series [6] was “Not Active” each time. Further, the Ki result (in series [2]; on Cytochrome P450 2E1; in series [3]; in series [4]; in series [6]) was “Not Active” in each case.

Consider `O=C(O)c1cc(/N=N/c2ccc(S(=O)(=O)Nc3ccccn3)cc2)ccc1O` [SULFASALAZINE], for which the IC50 result (in series [1] (jurkat); in series [2]; at Cytochrome P450 2E1; on Adenosine receptor A2a; in series [3]; in series [4]) was “Not Active” throughout. Besides, the IC50 result in series [5] and in series [6] was “Not Active” in each case. The Ki entry (in series [2]; on Cytochrome P450 2E1; in series [3]; in series [4]; in series [6]) was “Not Active” each time.

As to `Cc1cccc(C)c1NC(=O)C(C)N` (centres undefined) [TOCAINIDE], the IC50 result (in series [1] (jurkat); in series [2]; on Cytochrome P450 2E1; at Adenosine receptor A2a; in series [3]; in series [4]) was “Not Active” in each case. Moreover, the half-inhibitory concentration (IC50) result in series [5] and in series [6] was “Not Active” throughout. Moreover, the Ki result (in series [2]; on Cytochrome P450 2E1; in series [3]; in series [4]; in series [6]) was “Not Active” throughout.

For the compound `CO[C@@]12[C@H](COC(N)=O)C3=C(C(=O)C(C)=C(N)C3=O)N1C[C@@H]1N[C@@H]12` [MITOMYCIN], the IC50 entry (in series [1] (jurkat); in series [2]; against Cytochrome P450 2E1; on Adenosine receptor A2a; in series [3]; in series [4]) was “Not Active” throughout. Further, the IC50 entry in series [5] and in series [6] was “Not Active” throughout. Also, the inhibitory constant (Ki) entry (in series [2]; at Cytochrome P450 2E1; in series [3]; in series [4]; in series [6]) was “Not Active” in each case.

Turning to `Nc1nc(N)c2nc(-c3ccccc3)c(N)nc2n1`, the half-maximal inhibitory concentration (IC50) result (in series [1] (jurkat); in series [2]; against Cytochrome P450 2E1; on Adenosine receptor A2a; in series [3]; in series [4]) was “Not Active” in each case. In addition, the half-maximal inhibitory concentration (IC50) entry in series [5] and in series [6] was “Not Active” each time. Moreover, the inhibition constant Ki entry (in series [2]; on Cytochrome P450 2E1; in series [3]; in series [4]; in series [6]) was “Not Active” throughout.

As to `CC1=C(/C=C/C(C)=C/C=C/C(C)=C/C(=O)O)C(C)(C)CCC1` [TRETINOIN], the IC50 result (in series [1] (jurkat); in series [2]; at Cytochrome P450 2E1; on Adenosine receptor A2a; in series [3]; in series [4]) was “Not Active” throughout. Further, the IC50 result in series [5] and in series [6] was “Not Active” throughout. In addition, the Ki result (in series [2]; on Cytochrome P450 2E1; in series [3]; in series [4]; in series [6]) was “Not Active” throughout.

With `CC[C@@]1(O)C(=O)OCc2c1cc1n(c2=O)Cc2cc3c(CN(C)C)c(O)ccc3nc2-1` [TOPOTECAN], the IC50 entry (in series [1] (jurkat); in series [2]; on Cytochrome P450 2E1; on Adenosine receptor A2a; in series [3]; in series [4]) was “Not Active” in each case. Besides, the 50% inhibitory concentration (IC50) entry in series [5] and in series [6] was “Not Active” throughout. Moreover, the Ki result (in series [2]; at Cytochrome P450 2E1; in series [3]; in series [4]; in series [6]) was “Not Active” throughout.

For `Cc1ccc(Cl)c(Nc2ccccc2C(=O)O)c1Cl` [MECLOFENAMIC ACID], the IC50 entry (in series [1] (jurkat); in series [2]; against Cytochrome P450 2E1; on Adenosine receptor A2a; in series [3]; in series [4]) was “Not Active” each time. In addition, the IC50 result in series [5] and in series [6] was “Not Active” each time. Besides, the Ki entry (in series [2]; on Cytochrome P450 2E1; in series [3]; in series [4]; in series [6]) was “Not Active” in each case.

With `CCOc1cc(N)c(Cl)cc1C(=O)NCC1CN(Cc2ccc(F)cc2)CCO1` (centres undefined) [MOSAPRIDE], the IC50 was 306 nM in series [1] (read-out: IC50); “Not Active” in series [2]; “Not Active” against Cytochrome P450 2E1; “Not Active” on Adenosine receptor A2a; “Not Active” in series [3]; “Not Active” in series [4]. In addition, the IC50 entry in series [5] and in series [6] was “Not Active” in each case. Besides, the Ki in series [1] (read-out: Ki) is 128 nM; in series [2] it was “Not Active”; on Cytochrome P450 2E1 it was “Not Active”; in series [3], “Not Active”; in series [4], “Not Active”; in series [6], “Not Active”.

Consider `CN1C[C@H](CNC(=O)OCc2ccccc2)C[C@@H]2c3cccc4c3c(cn4C)C[C@H]21` [METERGOLINE], for which the IC50 entry was “Not Active” in series [1] (jurkat); “Not Active” in series [2]; “Not Active” on Cytochrome P450 2E1; “Not Active” at Adenosine receptor A2a; 268 nM in series [3] (read-out: IC50); “Not Active” in series [4]. Besides, the IC50 entry in series [5] and in series [6] was “Not Active” in each case. In addition, the Ki result in series [2] was “Not Active”; on Cytochrome P450 2E1, “Not Active”; in series [3] (read-out: Ki) it was 238 nM; in series [4], “Not Active”; in series [6], “Not Active”.

Regarding `CO[C@@H]1[C@@H](OC)[C@H](C)[C@@](O)(CC(=O)O)O[C@H]1[C@H](C)[C@H]1O[C@@]2(CC[C@@](C)([C@H]3CC[C@@](C)([C@@H]4O[C@@H]([C@H]5O[C@](C)(O)[C@H](C)C[C@@H]5C)C[C@@H]4O[C@@H]4C[C@H](OC)[C@@H](OC)[C@H](C)O4)O3)O2)C[C@H](O)[C@H]1C.N` [MADURAMICIN], the concentration for half-maximal inhibition (IC50) entry (in series [1] (jurkat); in series [2]; against Cytochrome P450 2E1; at Adenosine receptor A2a; in series [3]; in series [4]) was “Not Active” in each case. The half-inhibitory concentration (IC50) result in series [5] and in series [6] was “Not Active” each time. Moreover, the inhibitory constant (Ki) entry (in series [2]; on Cytochrome P450 2E1; in series [3]; in series [4]; in series [6]) was “Not Active” each time.

As to `CN1C(=O)OC(C)(C)C1=O` [TRIMETHADIONE], the IC50 result (in series [1] (jurkat); in series [2]; against Cytochrome P450 2E1; at Adenosine receptor A2a; in series [3]; in series [4]) was “Not Active” throughout. Also, the IC50 result in series [5] and in series [6] was “Not Active” each time. For the same compound, the Ki result (in series [2]; at Cytochrome P450 2E1; in series [3]; in series [4]; in series [6]) was “Not Active” each time.

For the compound `CC1(C)[C@H](C(=O)O)N2C(=O)C[C@H]2S1(=O)=O` [SULBACTAM], the IC50 entry (in series [1] (jurkat); in series [2]; at Cytochrome P450 2E1; on Adenosine receptor A2a; in series [3]; in series [4]) was “Not Active” throughout. In addition, the IC50 result in series [5] and in series [6] was “Not Active” each time. Besides, the Ki entry (in series [2]; on Cytochrome P450 2E1; in series [3]; in series [4]; in series [6]) was “Not Active” in each case.

What is called IC50 is the concentration that inhibits the measured activity by half. As a reminder, the Ki is a measure of affinity in units of concentration, obtained from inhibition or displacement.

(Values after ChEMBL document CHEMBL1909046, “DrugMatrix in vitro pharmacology data”.)
